pIC50: −log10 of the molar value.
What was measured:
[1] = target: Cathepsin S (UniProt P25774); test: Cathepsin enzyme inhibition assay (fluorogenic peptide substrate Z-Val-Val-Arg-AMC), Cathepsin S; type: biochemical, human and mouse; conditions: enzyme 1 nM, substrate 20 μM, pH 6.5; read-out: CatS IC50
Procedure, shortened: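 Compounds were combined with 1 nM human or mouse enzyme, and substrate then started the reaction. The buffer was potassium phosphate (100 mM, pH 6.5) containing EDTA-Na 5 mM, Triton X-100 0.001% and […] 5 mM.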

[2] = target: Cat L (UniProt P07711); test: Cathepsin enzyme inhibition assay (fluorogenic peptide substrate Z-Val-Val-Arg-AMC), Cathepsin L; type: biochemical, human and mouse; conditions: enzyme 1 nM, substrate 20 μM, pH 6.5; read-out: CatL IC50
Procedure, shortened: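 Fluorogenic cleavage of Z-Val-Val-Arg-AMC (20 μM) by 1 nM Cat L was monitored at ex 360/em 465 nm for 20 min, the linear phase. The buffer was 100 mM potassium phosphate pH 6.5 with 5 mM EDTA and DTT. IC50 values were derived by standard methods, in μM.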

Structure (SMILES)	pIC50 [1]	pIC50 [2]
CC(C)(C)C(=O)N1C[C@H](S(=O)(=O)c2ccc(Cl)cc2Cl)C[C@H]1C(=O)NC1(C#N)CC1 [Example 225, (2S,4R)-4-(2,4-Dichloro-benzenesulfonyl)-1-(2,2-dimethyl-propionyl)-pyrrolidine-2-carboxylic Acid (1-cyano-cyclopropyl)-amide]	8.92	4.74
CC(C)C(=O)N1C[C@H](S(=O)(=O)c2ccc(Cl)cc2Cl)C[C@H]1C(=O)NC1(C#N)CC1 [Example 226, (2S,4R)-4-(2,4-Dichloro-benzenesulfonyl)-1-isobutyryl-pyrrolidine-2-carboxylic acid (1-cyano-cyclopropyl)-amide]	9.22	4.87
N#CC1(NC(=O)[C@@H]2C[C@@H](S(=O)(=O)c3ccc(Cl)cc3Cl)CN2C(=O)CC(F)(F)F)CC1 [Example 227, (2S,4R)-4-(2,4-Dichloro-benzenesulfonyl)-1-(3,3,3-trifluoro-propionyl)-pyrrolidine-2-carboxylic acid (1-cyano-cyclopropyl)-amide]	9.22	4.81
CC(C)CC(=O)N1C[C@H](S(=O)(=O)c2ccc(Cl)cc2Cl)C[C@H]1C(=O)NC1(C#N)CC1 [Example 228, (2S,4R)-4-(2,4-Dichloro-benzenesulfonyl)-1-(3-methyl-butyryl)-pyrrolidine-2-carboxylic acid (1-cyano-cyclopropyl)-amide]	9.05	4.81
C[C@H](Oc1ccc(S(=O)(=O)[C@@H]2C[C@@H](C(=O)NC3(C#N)CC3)N(C(=O)OC(C)(C)C)C2)c(Cl)c1)C(F)(F)F [Example 229, (2S,4R)-4-[2-Chloro-4-((S)-2,2,2-trifluoro-1-methyl-ethoxy)-benzenesulfonyl]-2-(1-cyano-cyclopropylcarbamoyl)-pyrrolidine-1-carboxylic acid tert-butyl ester]	7.83	4.62
C[C@H](Oc1ccc(S(=O)(=O)[C@H]2CN[C@H](C(=O)NC3(C#N)CC3)C2)c(Cl)c1)C(F)(F)F [Example 230, (2S,4R)-4-[2-Chloro-4-((S)-2,2,2-trifluoro-1-methyl-ethoxy)-benzenesulfonyl]-pyrrolidine-2-carboxylic acid (1-cyano-cyclopropyl)-amide]	7.81	4.83
Cc1cc(N2C[C@H](S(=O)(=O)c3ccccc3C(F)(F)F)C[C@H]2C(=O)NC2(C#N)CC2)n(-c2ccn(C(=O)OCC(C)C)c(=O)c2)n1 [Example 231, 4-{5-[(2S,4R)-2-(1-Cyano-cyclopropylcarbamoyl)-4-(2-trifluoromethyl-benzenesulfonyl)-pyrrolidin-1-yl]-3-methyl-pyrazol-1-yl}-2-oxo-2H-pyridine-1-carboxylic acid Isobutyl ester]	9.30	< 4.60
Cc1cc(N2C[C@H](S(=O)(=O)c3ccccc3C(F)(F)F)C[C@H]2C(=O)NC2(C#N)CC2)n(-c2ccc(C(F)(F)F)cc2)n1 [Example 232, (2S,4R)-1-[5-Methyl-2-(4-trifluoromethyl-phenyl)-2H-pyrazol-3-yl]-4-(2-trifluoromethyl-benzenesulfonyl)-pyrrolidine-2-carboxylic acid (1-cyano-cyclopropyl)-amide]	9.68	4.89
Cc1cc(N2C[C@H](S(=O)(=O)c3ccccc3C(F)(F)F)C[C@H]2C(=O)NC2(C#N)CC2)n(-c2cccc(Cl)c2)n1 [Example 233, (2S,4R)-1-[2-(3-Chloro-phenyl)-5-methyl-2H-pyrazol-3-yl]-4-(2-trifluoromethyl-benzenesulfonyl)-pyrrolidine-2-carboxylic acid (1-cyano-cyclopropyl)-amide]	9.33	4.68
Cc1cc(N2C[C@H](S(=O)(=O)c3ccccc3C(F)(F)F)C[C@H]2C(=O)NC2(C#N)CC2)n(-c2nccs2)n1 [Example 234, (2S,4R)-1-(5-Methyl-2-thiazol-2-yl-2H-pyrazol-3-yl)-4-(2-trifluoromethyl-benzenesulfonyl)-pyrrolidine-2-carboxylic acid (1-cyano-cyclopropyl)-amide]	8.80	≤ 4.60
N#CC1(NC(=O)[C@@H]2C[C@@H](S(=O)(=O)c3ccc(F)cc3F)CN2C(=O)C2(c3ccc(Cl)cc3)CC2)CC1 [Example 235, (2S,4R)-1-[1-(4-Chloro-phenyl)-cyclopropanecarbonyl]-4-(2,4-difluoro-benzenesulfonyl)-pyrrolidine-2-carboxylic acid (1-cyano-cyclopropyl)-amide]	9.02	6.26
CC(C)CS(=O)(=O)[C@@H]1C[C@@H](C(=O)NC2(C#N)CC2)N(C(=O)C2(c3ccc(Cl)cc3)CC2)C1 [Example 236, (2S,4R)-1-[1-(4-Chloro-phenyl)-cyclopropanecarbonyl]-4-(2-methyl-propane-1-sulfonyl)-pyrrolidine-2-carboxylic acid (1-cyano-cyclopropyl)-amide]	6.62	≤ 4.60
N#CC1(NC(=O)[C@@H]2C[C@@H](S(=O)(=O)c3ccc(OCC(F)(F)F)cc3C(F)(F)F)CN2C(=O)C2(C(F)(F)F)CC2)CC1 [Example 237, (2S,4R)-4-[4-(2,2,2-Trifluoro-ethoxy)-2-trifluoromethyl-benzenesulfonyl]-1-(1-trifluoromethyl-cyclopropanecarbonyl)-pyrrolidine-2-carboxylic acid (1-cyano-cyclopropyl)-amide]	9.77	≤ 4.60
Cn1cc(-c2ccc(S(=O)(=O)[C@@H]3C[C@@H](C(=O)NC4(C#N)CC4)N(C(=O)C4(C(F)(F)F)CC4)C3)c(C(F)(F)F)c2)cn1 [Example 238, (2S,4R)-4-[4-(1-Methyl-1H-pyrazol-4-yl)-2-trifluoromethyl-benzenesulfonyl]-1-(1-trifluoromethyl-cyclopropanecarbonyl)-pyrrolidine-2-carboxylic acid (1-cyano-cyclopropyl)-amide]	10.30	4.68
N#CC1(NC(=O)[C@@H]2C[C@@H](S(=O)(=O)c3ccc(OCC(F)(F)F)cc3Cl)CN2C(=O)C2(c3ccc(Cl)c(Cl)c3)CC2)CC1 [Example 239, (2S,4R)-4-[2-Chloro-4-(2,2,2-trifluoro-ethoxy)-benzenesulfonyl]-1-[1-(3,4-dichloro-phenyl)-cyclopropanecarbonyl]-pyrrolidine-2-carboxylic acid (1-cyano-cyclopropyl)-amide]	10.10	7.08
N#CC1(NC(=O)[C@@H]2C[C@@H](S(=O)(=O)c3ccc(OCC(F)(F)F)cc3Cl)CN2C(=O)C2(c3ccccc3)CC2)CC1 [Example 240, (2S,4R)-4-[2-Chloro-4-(2,2,2-trifluoro-ethoxy)-benzenesulfonyl]-1-(1-phenyl-cyclopropanecarbonyl)-pyrrolidine-2-carboxylic acid (1-cyano-cyclopropyl)-amide]	10.05	6.23
N#CC1(NC(=O)[C@@H]2C[C@@H](S(=O)(=O)c3ccc(OCC(F)(F)F)cc3Cl)CN2C(=O)C2CC2(F)F)CC1 (stereo partly drawn) [Example 241, (2S,4R)-4-[2-Chloro-4-(2,2,2-trifluoro-ethoxy)-benzenesulfonyl]-1-(2,2-difluoro-cyclopropanecarbonyl)-pyrrolidine-2-carboxylic acid (1-cyano-cyclopropyl)-amide]	9.48	4.50
CC(C)(C)OC(=O)NC1(C(=O)N2C[C@H](S(=O)(=O)c3ccc(OCC(F)(F)F)cc3Cl)C[C@H]2C(=O)NC2(C#N)CC2)CC1 [Example 242, {1-[(2S,4R)-4-[2-Chloro-4-(2,2,2-trifluoro-ethoxy)-benzenesulfonyl]-2-(1-cyano-cyclopropylcarbamoyl)-pyrrolidine-1-carbonyl]-cyclopropyl}-carbamic Acid Tert-butyl ester]	8.32	5.84
N#CC1(NC(=O)[C@@H]2C[C@@H](S(=O)(=O)c3ccc(OCC(F)(F)F)cc3Cl)CN2C(=O)C2(C#N)CC2)CC1 [Example 243, (2S,4R)-4-[2-Chloro-4-(2,2,2-trifluoro-ethoxy)-benzenesulfonyl]-1-(1-cyano-cyclopropanecarbonyl)-pyrrolidine-2-carboxylic acid (1-cyano-cyclopropyl)-amide]	9.34	4.91
N#CC1(NC(=O)[C@@H]2C[C@@H](S(=O)(=O)c3ccc(OCC(F)(F)F)cc3Cl)CN2C(=O)Cc2ccc(Cl)cc2)CC1 [Example 244, (2S,4R)-1-[2-(4-Chloro-phenyl)-acetyl]-4-[2-chloro-4-(2,2,2-trifluoro-ethoxy)-benzenesulfonyl]-pyrrolidine-2-carboxylic acid (1-cyano-cyclopropyl)-amide]	8.50	5.23
N#CC1(NC(=O)[C@@H]2C[C@@H](S(=O)(=O)c3ccc(-c4ccnc(Cl)c4)cc3C(F)(F)F)CN2C(=O)C2(C(F)(F)F)CC2)CC1 [Example 245, (2S,4R)-4-[4-(2-Chloro-pyridin-4-yl)-2-trifluoromethyl-benzenesulfonyl]-1-(1-trifluoromethyl-cyclopropanecarbonyl)-pyrrolidine-2-carboxylic acid (1-cyano-cyclopropyl)-amide]	9.77	4.41
N#CC1(NC(=O)[C@@H]2C[C@@H](S(=O)(=O)c3ccc(OCC(F)(F)F)cc3Cl)CN2C(=O)C2CC2c2ccccc2)CC1 (stereo partly shown) [Example 246]	9.61	6.73
N#CC1(NC(=O)[C@@H]2C[C@@H](S(=O)(=O)c3ccc(OCC(F)(F)F)cc3Cl)CN2C(=O)C2CC2c2ccccc2)CC1 (stereo partly shown) [Example 247]	9.41	5.46

Reference: US8163793B2, “Proline derivatives” (Hoffman-La Roche Inc., priority 2009, dated 2012)
